Laboratory results taken from US12391679B2, “Benzamide-substituted bicyclic imidazo- and pyrazolo-fused -pyridine, -pyrimide, and -pyridazine compounds for treatment of inflammatory diseases” (ONCO3R Therapeutics BV, priority 2019, dated 2025).

Tests used:
Assay type in all cases: biochemical
SIK1 = target: T1, SIK1 (Homo sapiens, UniProt P57059); experiment: ADP-Glo kinase assay, SIK1
T1 construct: purchased Carna Biosciences 02-131
Outline: (§1)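 ADP-Glo format, luminescent. Room-temperature kinase reaction lasting 120 min, followed by ATP removal (40 min) and ADP detection (30 min); 10 μM staurosporine serves as full-inhibition control, 1% DMSO as uninhibited control.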

SIK2 = target: T2, SIK2 (Homo sapiens, UniProt Q9H0K1); experiment: ADP-Glo kinase assay, SIK2
T2 construct: purchased ThermoFisher Scientific PV4792
T2 sequence (Q9H0K1 whole entry): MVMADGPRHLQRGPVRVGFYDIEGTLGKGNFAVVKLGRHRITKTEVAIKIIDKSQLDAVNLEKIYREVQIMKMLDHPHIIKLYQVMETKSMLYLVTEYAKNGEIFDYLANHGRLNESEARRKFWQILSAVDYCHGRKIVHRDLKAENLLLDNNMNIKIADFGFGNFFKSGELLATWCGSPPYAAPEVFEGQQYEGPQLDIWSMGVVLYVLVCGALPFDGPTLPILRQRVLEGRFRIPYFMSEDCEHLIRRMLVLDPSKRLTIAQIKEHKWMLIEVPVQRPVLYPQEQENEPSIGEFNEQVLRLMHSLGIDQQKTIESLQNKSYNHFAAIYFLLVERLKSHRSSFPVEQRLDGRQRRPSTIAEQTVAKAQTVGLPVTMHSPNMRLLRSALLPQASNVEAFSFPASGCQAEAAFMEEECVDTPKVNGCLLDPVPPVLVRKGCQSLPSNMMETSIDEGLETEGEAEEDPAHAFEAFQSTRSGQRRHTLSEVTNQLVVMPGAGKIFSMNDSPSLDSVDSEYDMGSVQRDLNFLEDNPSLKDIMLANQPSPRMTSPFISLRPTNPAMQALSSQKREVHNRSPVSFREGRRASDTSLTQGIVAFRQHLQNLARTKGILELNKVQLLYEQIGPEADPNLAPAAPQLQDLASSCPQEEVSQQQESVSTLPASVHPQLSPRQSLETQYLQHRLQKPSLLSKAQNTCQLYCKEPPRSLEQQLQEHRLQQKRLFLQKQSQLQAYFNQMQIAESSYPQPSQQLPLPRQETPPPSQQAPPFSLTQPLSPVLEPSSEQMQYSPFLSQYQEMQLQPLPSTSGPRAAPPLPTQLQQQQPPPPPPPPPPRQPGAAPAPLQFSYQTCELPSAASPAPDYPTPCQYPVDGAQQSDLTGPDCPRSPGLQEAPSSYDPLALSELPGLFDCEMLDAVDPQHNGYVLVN
Outline: as §1

SIK3 = target: T3, SIK3 (Homo sapiens, UniProt Q9Y2K2); experiment: ADP-Glo kinase assay, SIK3
T3 construct: purchased SignalChem S12-11G-100
T3 sequence (Q9Y2K2 59-365 limits assumed): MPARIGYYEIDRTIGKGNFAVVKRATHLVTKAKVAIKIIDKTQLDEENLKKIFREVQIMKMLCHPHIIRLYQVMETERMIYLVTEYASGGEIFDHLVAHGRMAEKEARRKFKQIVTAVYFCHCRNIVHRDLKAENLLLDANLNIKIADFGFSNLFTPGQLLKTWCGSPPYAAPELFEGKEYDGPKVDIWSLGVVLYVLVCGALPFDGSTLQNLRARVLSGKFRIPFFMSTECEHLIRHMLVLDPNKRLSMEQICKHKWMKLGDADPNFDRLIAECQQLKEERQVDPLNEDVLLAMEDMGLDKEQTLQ
Outline: as §1

T1 sequence (P57059 whole entry): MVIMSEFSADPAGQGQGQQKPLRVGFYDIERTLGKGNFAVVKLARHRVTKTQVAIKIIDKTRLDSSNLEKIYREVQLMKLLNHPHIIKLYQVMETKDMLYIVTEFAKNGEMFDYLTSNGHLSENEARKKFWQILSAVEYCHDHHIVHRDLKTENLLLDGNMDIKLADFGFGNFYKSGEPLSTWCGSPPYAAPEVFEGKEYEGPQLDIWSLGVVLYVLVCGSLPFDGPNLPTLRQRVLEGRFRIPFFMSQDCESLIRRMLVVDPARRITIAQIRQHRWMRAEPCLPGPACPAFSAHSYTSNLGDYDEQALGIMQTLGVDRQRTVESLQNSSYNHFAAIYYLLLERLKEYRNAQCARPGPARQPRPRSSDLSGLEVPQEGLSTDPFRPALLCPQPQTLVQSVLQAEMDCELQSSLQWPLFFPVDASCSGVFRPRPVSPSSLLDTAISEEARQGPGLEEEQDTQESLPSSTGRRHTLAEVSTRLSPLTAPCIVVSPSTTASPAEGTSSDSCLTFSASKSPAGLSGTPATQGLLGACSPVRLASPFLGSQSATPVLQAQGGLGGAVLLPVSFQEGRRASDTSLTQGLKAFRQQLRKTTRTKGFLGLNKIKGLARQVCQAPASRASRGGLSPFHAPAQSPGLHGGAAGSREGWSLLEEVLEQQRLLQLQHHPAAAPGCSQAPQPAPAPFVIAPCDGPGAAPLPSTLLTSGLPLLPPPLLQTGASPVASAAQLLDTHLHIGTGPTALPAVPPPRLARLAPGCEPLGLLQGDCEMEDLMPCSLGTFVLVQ

Structure (SMILES) | IC50 (SIK1) | IC50 (SIK2) | IC50 (SIK3)
COc1cc(-c2cnc3cc(C(C)(C)N4CCOCC4)ccn23)cc(OC(F)F)c1C(=O)NC1CC1 [Cpd 226, N-cyclopropyl-2-(difluoromethoxy)-6-methoxy-4-[7-(1-methyl-1-morpholino-ethyl)imidazo[1,2-a]pyridin-3-yl]benzamide] | > 500 nM | > 500 nM | 10 to 100 nM
COc1cc(-c2cnn3cc(C(C)(C)OCCO)ccc23)cc(OC(F)F)c1C(=O)NC1CC1 [Cpd 239, N-cyclopropyl-2-(difluoromethoxy)-4-[6-[1-(2-hydroxyethoxy)-1-methyl-ethyl]pyrazolo[1,5-a]pyridin-3-yl]-6-methoxy-benzamide] | > 500 nM | > 500 nM | 10 to 100 nM
COc1cc(-c2cnn3cc(C(C)(C)C(N)=O)ccc23)cc(OC(F)F)c1C(=O)NC1CC1 [Cpd 244, 4-[6-(2-amino-1,1-dimethyl-2-oxo-ethyl)pyrazolo[1,5-a]pyridin-3-yl]-N-cyclopropyl-2-(difluoromethoxy)-6-methoxy-benzamide] | > 500 nM | > 500 nM | 10 to 100 nM
COc1cc(-c2cnn3cc(C(C)(C)S(C)(=O)=O)ccc23)cc(OC(F)F)c1C(=O)N[C@@H]1C[C@@H]1F [Cpd 246, 2-(difluoromethoxy)-N-[(1R,2S)-2-fluorocyclopropyl]-6-methoxy-4-[6-(1-methyl-1-methylsulfonyl-ethyl)pyrazolo[1,5-a]pyridin-3-yl]benzamide] | > 500 nM | > 500 nM | 10 to 100 nM
COc1cc(-c2cnn3cc(C(C)(C)c4noc(C)n4)ccc23)cc(OC(F)F)c1C(=O)NC1CC1 [Cpd 247, N-cyclopropyl-2-(difluoromethoxy)-6-methoxy-4-[6-[1-methyl-1-(5-methyl-1,2,4-oxadiazol-3-yl)ethyl]pyrazolo[1,5-a]pyridin-3-yl]benzamide] | > 500 nM | > 500 nM | 10 to 100 nM
CCNC(=O)C(C)(C)c1ccc2c(-c3cc(OC)c(C(=O)NC4CC4)c(OC(F)F)c3)cnn2c1 [Cpd 249, N-cyclopropyl-2-(difluoromethoxy)-4-[6-[2-(ethylamino)-1,1-dimethyl-2-oxo-ethyl]pyrazolo[1,5-a]pyridin-3-yl]-6-methoxy-benzamide] | > 500 nM | > 500 nM | 10 to 100 nM
COc1cc(-c2cnn3cc(C(C)(C)C#N)ccc23)cc(F)c1C(=O)NC1CC1 [Cpd 252, 4-[6-(1-cyano-1-methyl-ethyl)pyrazolo[1,5-a]pyridin-3-yl]-N-cyclopropyl-2-fluoro-6-methoxy-benzamide] | > 500 nM | > 500 nM | 100 to 500 nM
COc1cc(-c2cnn3cc(C(C)(C)C#N)ccc23)cc(OC)c1C(=O)NC1CC1 [Cpd 259, 4-[6-(1-cyano-1-methyl-ethyl)pyrazolo[1,5-a]pyridin-3-yl]-N-cyclopropyl-2,6-dimethoxy-benzamide] | > 500 nM | > 500 nM | 10 to 100 nM
COCCOc1cc(-c2cnn3cc(C(C)(C)C#N)ccc23)cc(OC)c1C(=O)NC1CC1 [Cpd 260, 4-[6-(1-cyano-1-methyl-ethyl)pyrazolo[1,5-a]pyridin-3-yl]-N-cyclopropyl-2-methoxy-6-(2-methoxyethoxy)benzamide] | > 500 nM | > 500 nM | 100 to 500 nM
COc1cc(-c2cnn3cc(C(C)(C)C#N)ccc23)cc(OCCO)c1C(=O)NC1CC1 [Cpd 263, 4-[6-(1-cyano-1-methyl-ethyl)pyrazolo[1,5-a]pyridin-3-yl]-N-cyclopropyl-2-(2-hydroxyethoxy)-6-methoxy-benzamide] | > 500 nM | > 500 nM | 100 to 500 nM
CCCCOC(=O)NC(C)(C)c1ccc2c(-c3cc(OC)c(C(=O)N[C@@H]4C[C@@H]4F)c(OC(F)F)c3)cnn2c1 [Cpd 264, butyl N-[1-[3-[3-(difluoromethoxy)-4-[[(1R,2S)-2-fluorocyclopropyl]carbamoyl]-5-methoxy-phenyl]pyrazolo[1,5-a]pyridin-6-yl]-1-methyl-ethyl]carbamate] | > 500 nM | > 500 nM | 10 to 100 nM
COc1cc(-c2cnn3cc(C4(NCC#N)CCC4)ccc23)cc(OC(F)F)c1C(=O)N[C@@H]1C[C@@H]1F [Cpd 270, 4-[6-[1-(cyanomethylamino)cyclobutyl]pyrazolo[1,5-a]pyridin-3-yl]-2-(difluoromethoxy)-N-[(1R,2S)-2-fluorocyclopropyl]-6-methoxy-benzamide] | > 500 nM | > 500 nM | 10 to 100 nM
COc1cc(-c2cnn3cc(C4(NCC(F)F)CCC4)ccc23)cc(OC(F)F)c1C(=O)N[C@@H]1C[C@@H]1F [Cpd 271, 4-[6-[1-(2,2-difluoroethylamino)cyclobutyl]pyrazolo[1,5-a]pyridin-3-yl]-2-(difluoromethoxy)-N-[(1R,2S)-2-fluorocyclopropyl]-6-methoxy-benzamide] | > 500 nM | > 500 nM | 10 to 100 nM
COc1cc(-c2cnn3cc(C4(C(=O)N5CCOCC5)CCC4)ccc23)cc(OC(F)F)c1C(=O)N[C@@H]1C[C@@H]1F [Cpd 274, 2-(difluoromethoxy)-N-[(1R,2S)-2-fluorocyclopropyl]-6-methoxy-4-[6-[1-(morpholine-4-carbonyl)cyclobutyl]pyrazolo[1,5-a]pyridin-3-yl]benzamide] | > 500 nM | > 500 nM | 100 to 500 nM
CCN(CC)CC(C)(C)c1ccc2c(-c3cc(OC)c(C(=O)N[C@@H]4C[C@@H]4F)c(OC(F)F)c3)cnn2c1 [Cpd 276, 4-[6-[2-(diethylamino)-1,1-dimethyl-ethyl]pyrazolo[1,5-a]pyridin-3-yl]-2-(difluoromethoxy)-N-[(1R,2S)-2-fluorocyclopropyl]-6-methoxy-benzamide] | > 500 nM | > 500 nM | 10 to 100 nM

Results, then the compound that gave them:

IC50 (SIK1) | IC50 (SIK2) | IC50 (SIK3) | Structure (SMILES)
> 500 nM | > 500 nM | 10 to 100 nM | COc1cc(-c2cnc3cc(C(C)(C)C(O)C(C)C)ccn23)cc(OC(F)F)c1C(=O)NC1CC1 (stereo not drawn) [Cpd 202, N-cyclopropyl-2-(difluoromethoxy)-4-[7-(2-hydroxy-1,1,3-trimethyl-butyl)imidazo[1,2-a]pyridin-3-yl]-6-methoxy-benzamide]
> 500 nM | 100 to 500 nM | 10 to 100 nM | COc1cc(-c2cnc3cc(C4CCN4)ccn23)cc(OC(F)F)c1C(=O)NC1CC1 (stereo not drawn) [Cpd 203, 4-[7-(azetidin-2-yl)imidazo[1,2-a]pyridin-3-yl]-N-cyclopropyl-2-(difluoromethoxy)-6-methoxy-benzamide]
> 500 nM | > 500 nM | 10 to 100 nM | COc1cc(-c2cnc3cc(C4CCN4C)ccn23)cc(OC(F)F)c1C(=O)NC1CC1 (stereo not drawn) [Cpd 204, N-cyclopropyl-2-(difluoromethoxy)-6-methoxy-4-[7-(1-methylazetidin-2-yl)imidazo[1,2-a]pyridin-3-yl]benzamide]
> 500 nM | > 500 nM | 10 to 100 nM | COc1cc(-c2cnc3cc(C(C)(O)CN(C)CCO)ccn23)cc(OC(F)F)c1C(=O)NC1CC1 (stereo not drawn) [Cpd 209, N-cyclopropyl-2-(difluoromethoxy)-4-[7-[1-hydroxy-2-[2-hydroxyethyl(methyl)amino]-1-methyl-ethyl]imidazo[1,2-a]pyridin-3-yl]-6-methoxy-benzamide]
> 500 nM | > 500 nM | 10 to 100 nM | COc1cc(-c2cnc3cc(C4(C)CN(C)CCO4)ccn23)cc(OC(F)F)c1C(=O)NC1CC1 (stereo not drawn) [Cpd 210, N-cyclopropyl-2-(difluoromethoxy)-4-[7-(2,4-dimethylmorpholin-2-yl)imidazo[1,2-a]pyridin-3-yl]-6-methoxy-benzamide]
> 500 nM | > 500 nM | 100 to 500 nM | COc1cc(-c2cnc3cc(C4(C)CN(C)CCO4)ccn23)cc(OC(F)F)c1C(=O)NCC(F)(F)F (stereo not drawn) [Cpd 214, 2-(difluoromethoxy)-4-[7-(2,4-dimethylmorpholin-2-yl)imidazo[1,2-a]pyridin-3-yl]-6-methoxy-N-(2,2,2-trifluoroethyl)benzamide]
100 to 500 nM | 100 to 500 nM | 10 to 100 nM | COc1cn2c(-c3cc(OC)c(C(=O)NC4CC4)c(OC(F)F)c3)cnc2cc1C1COC1 [Cpd 215, N-cyclopropyl-2-(difluoromethoxy)-6-methoxy-4-[6-methoxy-7-(oxetan-3-yl)imidazo[1,2-a]pyridin-3-yl]benzamide]
> 500 nM | 100 to 500 nM | 10 to 100 nM | COc1cc(-c2cnc3cc(C4(Cl)COC4)ccn23)cc(OC(F)F)c1C(=O)NC1CC1 [Cpd 217, 4-[7-(3-chlorooxetan-3-yl)imidazo[1,2-a]pyridin-3-yl]-N-cyclopropyl-2-(difluoromethoxy)-6-methoxy-benzamide]
> 500 nM | > 500 nM | 10 to 100 nM | COc1cc(-c2cnc3cc(C4(C)COCCO4)ccn23)cc(OC(F)F)c1C(=O)NC1CC1 (stereo not drawn) [Cpd 220, N-cyclopropyl-2-(difluoromethoxy)-6-methoxy-4-[7-(2-methyl-1,4-dioxan-2-yl)imidazo[1,2-a]pyridin-3-yl]benzamide]
> 500 nM | > 500 nM | 100 to 500 nM | COc1cc(-c2cnc3cc(C4(N5CCOCC5)COC4)ccn23)cc(OC(F)F)c1C(=O)NC1CC1 [Cpd 222, N-cyclopropyl-2-(difluoromethoxy)-6-methoxy-4-[7-(3-morpholinooxetan-3-yl)imidazo[1,2-a]pyridin-3-yl]benzamide]
